Assay results reported in patent US8236790B2, “Benzothiadiazepine compounds, a process for their preparation and pharmaceutical compositions containing them” (Les Laboratories Servier, priority 2009, dated 2012).

How the values were obtained:
[1] = test system: NMDA-type glutamatergic receptors from rat cortex; experiment: Current induced by NMDA in oocytes of Xenopus laevis injected with poly(A+) mRNA from rat cortex (two-electrode voltage clamp); assay type: cell-based; details: NMDA 3×10^−4M with 3×10^−5M glycine, −60 mV, magnesium-free OR2; read-out: IC50 (concentration of product which inhibits the current induced by NMDA by 50%)
Experimental: Effect of Compounds on the Current Induced by NMDA in Oocytes of Xenopus laevis Injected with Poly(A^+) mRNA from Rat Cortex
Electrophysiological recordings are carried out on oocytes of Xenopus laevis injected with poly(A^+) mRNA from rat cortex and expressing, inter alia, NMDA-type glutamatergic receptors from rat cortex, in a plexiglass recording chamber continuously perfused with OR2 solution not containing magnesium (which blocks the opening of the NMDA receptor channel) and at ambient temperature. The inward current induced by an application of NMDA is recorded at a resting potential of −60 mV, using a standard two-electrode voltage clamp technique. The NMDA (3×10^−4M) is applied with the perfusion solution in the presence of 3×10^−5M glycine for 30 seconds every 5 minutes, at a constant perfusion rate of 3 ml/min. The amplitude of the current induced by NMDA is measured at the peak of the current. The tested compounds are applied at increasing doses to the same oocyte in the perfusion solution 45 seconds before, 30 seconds during and 30 seconds after the application of 3×10^−4M NMDA in the presence of 3×10^−5M glycine every 5 minutes. The amplitude of the current induced by NMDA in the presence of compound is normalised and expressed as a percentage of that induced in the same oocyte in the absence of product, which corresponds to 100% response. […]

[2] = test system: AMPA receptor; experiment: Membrane depolarisation brought about by AMPA in primary cultures of rat neurons (fluorescence); assay type: cell-based; details: read-out: EC2X (the concentration of compound which doubles the membrane potential brought about by AMPA); cultured rat embryonic neurons, AMPA 3 to 100 μM
Experimental: Study of the Effect of Compounds on the Membrane Depolarisation Brought about by AMPA in Primary Cultures of Rat Neurons
The test comprises the in vitro measurement, by means of fluorescence, of the membrane depolarisation brought about in cultured rat embryonic neurons by the joint action of AMPA and the compound under test, compared to the action of AMPA alone. The brain cells are placed in culture and kept in a cell culture incubator for 18 days. After incubation, the culture medium is withdrawn and replaced with fluorescent probe loading medium for measurement of the membrane potential (20 μl; membrane potential kit from Molecular Devices) and left at ambient temperature for 1 hour. The base fluorescence of the wells is read (FDSS apparatus from Hamamatsu) and the cells are then injected with AMPA (20 μl; concentration range: from 3 to 100 μM) and the action of the AMPA is measured kinetically. The test compound is then introduced into the wells (20 μl; in a concentration range crossed with that of AMPA) and the action of the compound is measured kinetically. At the end of each of the two periods of kinetic measurement, the result for each well is the average reading over the final 15 seconds of the period. The curves are plotted of the effect of AMPA at the various concentrations of compound. […]

[3] = test system: CD1 mouse; experiment: Object recognition in the CD1 mouse; assay type: in vivo; details: doses of 1 and 3 mg/kg PO, 60 minutes before each of the 3 phases
Source text: Object Recognition in the CD1 Mouse
The object recognition test (Behay. Brain Res., 1988, 31, 47-59) is based on the spontaneous exploratory activity of the animal and has the characteristics of episodic memory in humans. This memory test is sensitive to ageing (Eur. J. Pharmacol., 1997, 325, 173-180) and to cholinergic dysfunctions (Pharm. Biochem. Behay., 1996, 53(2), 277-283) and is based on the differences in the exploration of 2 objects of fairly similar shape—one familiar, the other new. The test procedure, which has been adapted for the CD1 mouse, comprises 3 phases which take place in the same test enclosure. During the first phase, which lasts 40 minutes, the mice are habituated to the environment. During the second phase, which takes place the next day, an object is placed in the enclosure and the mouse is free to explore it. Once the duration of that exploration has reached 20 seconds, the mouse is taken out of the enclosure. In the course of the third phase (5 minutes), 24 hours later, the same object is presented (acquiring the status of a “familiar” object), as well as a new object. The duration of exploration, expressed in seconds, is timed for each of the two objects.

| IC50 [1] | melting point | Structure (SMILES) | EC2X [2] | exploration of the new object compared to the familiar object [3] |
| --- | --- | --- | --- | --- |
| 9 µM | – | O=S1(=O)NCCNc2ccc(Oc3ccccc3)cc21 [Example 1, 8-phenoxy-2,3,4,5-tetrahydro-1,2,5-benzothiadiazepine 1,1-dioxide] | 25 µM | significantly greater exploration of the new object |
| – | 134 °C | O=S1(=O)NCCNc2ccc(Oc3ccc(OCc4ccccc4)cc3)cc21 [Example 8, 8-[4-(benzyloxy)phenoxy]-2,3,4,5-tetrahydro-1,2,5-benzothiadiazepine 1,1-dioxide] | – | – |
